Drawing on US10336739B2, “4-hydroxy-3-(heteroaryl)pyridine-2-one APJ agonists” (BRISTOL-MYERS SQUIBB COMPANY, priority 2015, dated 2019), this text covers EC50 for 16 compounds.

What is called EC50 is the midpoint of the concentration-response curve.

The target of the assay is human APJ receptor (Homo sapiens (Human), UniProt P35414). Briefly: Intracellular cAMP accumulation assay (APJ hcAMP, HTRF). Format: cell-based. The settings on record: HEK293 cells stably expressing human APJ receptor; inhibition of forskolin-mediated cAMP production; read-out: hAPJ cAMP EC50 (nM) Potency range. An outline of the steps: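 HEK293 cells stably expressing human APJ, 5,000 per well, exposed to compound with […] IBMX and 2 μM forskolin for 30 minutes at room temperature. cAMP measured by HTRF after lysis and 60 min detection incubation. EC50 from sigmoidal variable-slope fits of inhibition of forskolin-induced cAMP, quantified against a cAMP standard curve.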
Chain of human APJ receptor (P35414 whole entry): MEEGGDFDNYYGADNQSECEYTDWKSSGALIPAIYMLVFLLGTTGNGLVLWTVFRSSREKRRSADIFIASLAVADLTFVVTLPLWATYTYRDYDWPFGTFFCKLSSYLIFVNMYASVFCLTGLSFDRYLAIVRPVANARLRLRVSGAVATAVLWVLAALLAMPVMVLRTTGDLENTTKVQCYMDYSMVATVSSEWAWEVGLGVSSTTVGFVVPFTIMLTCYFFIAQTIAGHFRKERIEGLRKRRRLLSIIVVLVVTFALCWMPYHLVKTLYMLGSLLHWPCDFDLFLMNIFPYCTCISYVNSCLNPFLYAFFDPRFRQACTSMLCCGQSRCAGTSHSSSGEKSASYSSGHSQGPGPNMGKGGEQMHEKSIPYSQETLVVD
For the compound `CCCCc1nc(O)c(-c2nnc(CC(=O)N(C)CCc3ccccc3)o2)c(O)c1-c1c(OC)cccc1OC` [Example 261, 2-{5-[6-butyl-5-(2,6-dimethoxyphenyl)-2,4-dihydroxy-pyridin-3-yl]-1,3,4-oxadiazol-2-yl}-N-methyl-N-(2-phenylethyl) acetamide], the EC50 is 0.01 to 10 nM.
The same measure for `C#CCNC(=O)Cc1nnc(-c2c(O)nc(CCCC)c(-c3c(OC)cccc3OC)c2O)o1` [Example 262, 2-{5-[6-butyl-5-(2,6-dimethoxyphenyl)-2,4-dihydroxy-pyridin-3-yl]-1,3,4-oxadiazol-2-yl}-N-(prop-2-yn-1-yl)acetamide]: 0.01 to 10 nM; for `CCCCc1nc(O)c(-c2nnc(CC(=O)Nc3cc(C)n[nH]3)o2)c(O)c1-c1c(OC)cccc1OC` [Example 263, 2-{5-[6-butyl-5-(2,6-dimethoxyphenyl)-2,4-dihydroxy-pyridin-3-yl]-1,3,4-oxadiazol-2-yl}-N-(3-methyl-1H-pyrazol-5-yl)acetamide]: 0.01 to 10 nM.
As for `CCCCc1nc(O)c(-c2nnc(CC(=O)NCc3ccccc3C)o2)c(O)c1-c1c(OC)cccc1OC` [Example 264, 2-{5-[6-butyl-5-(2,6-dimethoxyphenyl)-2,4-dihydroxy-pyridin-3-yl]-1,3,4-oxadiazol-2-yl}-N-[(2-methylphenyl)methyl]acetamide], the figure is 0.01 to 10 nM.
The same measure for `CCCCc1nc(O)c(-c2nnc(CC(=O)NCc3ccccc3Cl)o2)c(O)c1-c1c(OC)cccc1OC` [Example 265, 2-{5-[6-butyl-5-(2,6-dimethoxyphenyl)-2,4-dihydroxy-pyridin-3-yl]-1,3,4-oxadiazol-2-yl}-N-[(2-chlorophenyl)methyl]acetamide]: 0.01 to 10 nM; for `CCCCc1nc(O)c(-c2nnc(CC(=O)NCc3ccc(Cl)cc3)o2)c(O)c1-c1c(OC)cccc1OC` [Example 266, 2-{5-[6-butyl-5-(2,6-dimethoxyphenyl)-2,4-dihydroxy-pyridin-3-yl]-1,3,4-oxadiazol-2-yl}-N-[(4-chlorophenyl)methyl]acetamide]: 0.01 to 10 nM.
With `CCCCc1nc(O)c(-c2nnc(CC(=O)NCCc3ccc(Cl)cc3)o2)c(O)c1-c1c(OC)cccc1OC` [Example 267, 2-{5-[6-butyl-5-(2,6-dimethoxyphenyl)-2,4-dihydroxy-pyridin-3-yl]-1,3,4-oxadiazol-2-yl}-N-[2-(4-chlorophenyl)ethyl]acetamide], the EC50 lay within 0.01 to 10 nM.
The same measure for `CCCCc1nc(O)c(-c2nnc(CC(=O)NCc3ccncc3)o2)c(O)c1-c1c(OC)cccc1OC` [Example 268, 2-{5-[6-butyl-5-(2,6-dimethoxyphenyl)-2,4-dihydroxy-pyridin-3-yl]-1,3,4-oxadiazol-2-yl}-N-[(pyridin-4-yl)methyl] acetamide]: 0.01 to 10 nM.
The same measure for `CCCCc1nc(O)c(-c2nnc(CC(=O)NCc3ccc(OC)cc3)o2)c(O)c1-c1c(OC)cccc1OC` [Example 269, 2-{5-[6-butyl-5-(2,6-dimethoxyphenyl)-2,4-dihydroxy-pyridin-3-yl]-1,3,4-oxadiazol-2-yl}-N-[(4-methoxyphenyl)methyl]acetamide]: 0.01 to 10 nM; for `CCCCc1nc(O)c(-c2nnc(CC(=O)NCc3ccc(N(C)C)cc3)o2)c(O)c1-c1c(OC)cccc1OC` [Example 270, 2-{5-[6-butyl-5-(2,6-dimethoxyphenyl)-2,4-dihydroxy-pyridin-3-yl]-1,3,4-oxadiazol-2-yl}-N-{[4-(dimethylamino)phenyl]methyl} acetamide]: 0.01 to 10 nM.
As for `CCCCc1nc(O)c(-c2nnc(CC(=O)NCc3nnc(C)o3)o2)c(O)c1-c1c(OC)cccc1OC` [Example 271, 2-{5-[6-butyl-5-(2,6-dimethoxyphenyl)-2,4-dihydroxypyridin-3-yl]-1,3,4-oxadiazol-2-yl}-N-[(5-methyl-1,3,4-oxadiazol-2-yl)methyl]acetamide], the figure is 0.01 to 10 nM; as for `CCCCc1nc(O)c(-c2nnc(CC(=O)NCc3cc(C(C)C)no3)o2)c(O)c1-c1c(OC)cccc1OC` [Example 272, 2-{5-[6-butyl-5-(2,6-dimethoxyphenyl)-2,4-dihydroxy-pyridin-3-yl]-1,3,4-oxadiazol-2-yl}-N-{[3-(propan-2-yl)-1,2-oxazol-5-yl]methyl} acetamide], 0.01 to 10 nM.
As for `CCCCc1nc(O)c(-c2nnc(CC(=O)NCc3ccc(S(N)(=O)=O)cc3)o2)c(O)c1-c1c(OC)cccc1OC` [Example 273, 2-{5-[6-butyl-5-(2,6-dimethoxyphenyl)-2,4-dihydroxy-pyridin-3-yl]-1,3,4-oxadiazol-2-yl}-N-[(4-sulfamoylphenyl)methyl]acetamide], the EC50 fell in the range of 10 to 100 nM.
As for `CCOCc1nc(O)c(-c2nnc(Cc3ccc(Cl)cn3)o2)c(O)c1-c1c(O)cccc1OC` [Example 274, 3-{5-[(5-chloropyridin-2-yl)methyl]-1,3,4-oxadiazol-2-yl}-6-(ethoxymethyl)-5-(2-hydroxy-6-methoxyphenyl) pyridine-2,4-diol], the figure is 0.01 to 10 nM; as for `CCOCc1nc(O)c(-c2nnc(Cc3ccc(Cl)cn3)o2)c(O)c1-c1c(O)cccc1OC` [Example 275, 3-{5-[(5-chloropyridin-2-yl)methyl]-1,3,4-oxadiazol-2-yl}-6-(ethoxymethyl)-5-(2-hydroxy-6-methoxyphenyl) pyridine-2,4-diol], 10 to 100 nM.
The same measure for `CCOCc1nc(O)c(-c2nnc(Cc3ccc(Cl)cn3)o2)c(O)c1-c1c(O)cccc1O` [Example 276, 3-{5-[(5-chloropyridin-2-yl)methyl]-1,3,4-oxadiazol-2-yl}-5-(2,6-dihydroxyphenyl)-6-(ethoxymethyl) pyridine-2,4-diol]: 10 to 100 nM.
